Assay results as given in patent US7935682B2, “Wound healing dressing for enhancing fibrocyte formation” (William Marsh Rice University, priority 2002, dated 2011).

B1: CRP: purified human C-reactive protein (Calbiochem) (protein, UniProt P02741 19-224, looked up)
C-reactive protein: QTDMSRKAFVFPKESDTSYVSLKAPLTKPLKAFTVCLHFYTELSSTRGYSIFSYATKRQDNEILIFWSKDIGYSFTVGGSEILFEVPEVTVAPVHICTSWESASGIVEFWVDGKPRVRKSLKKGYTVGAEASIILGQEQDSFGGNFEGSQSLVGDIGNVNMWDFVLSPDEINTIYLGGPFSPNVLNWRALKYEVQGEVFTKPQLWP
B2: Protein S: purified human protein S, vitamin K-dependent anticoagulant (Calbiochem) (protein, UniProt P07225 42-676, looked up)
Vitamin K-dependent protein S: ANSLLEETKQGNLERECIEELCNKEEAREVFENDPETDYFYPKYLVCLRSFQTGLFTAARQSTNAYPDLRSCVNAIPDQCSPLPCNEDGYMSCKDGKASFTCTCKPGWQGEKCEFDINECKDPSNINGGCSQICDNTPGSYHCSCKNGFVMLSNKKDCKDVDECSLKPSICGTAVCKNIPGDFECECPEGYRYNLKSKSCEDIDECSENMCAQLCVNYPGGYTCYCDGKKGFKLAQDQKSCEVVSVCLPLNLDTKYELLYLAEQFAGVVLYLKFRLPEISRFSAEFDFRTYDSEGVILYAESIDHSAWLLIALRGGKIEVQLKNEHTSKITTGGDVINNGLWNMVSVEELEHSISIKIAKEAVMDINKPGPLFKPENGLLETKVYFAGFPRKVESELIKPINPRLDGCIRSWNLMKQGASGIKEIIQEKQNKHCLVTVEKGSYYPGSGIAQFHIDYNNVSSAEGWHVNVTLNIRPSTGTGVMLALVSGNNTVPFAVSLVDSTSEKSQDILLSVENTVIYRIQALSLCSDQQSHLEFRVNRNNLELSTPLKIETISHEDLQRQLAVLDKAMKAKVATYLGGLPDVPFSATPVNAFYNGCMEVNINGVQLDLDEAISKHNDIRAHSCPSVWKKTKNS
B3: IL-4: cytokine, activator of the fibrotic response (protein, UniProt P05112 25-153, looked up)
Interleukin-4: HKCDITLQEIIKTLNSLTEQKTLCTELTVTDIFAASKNTTEKETFCRAATVLRQFYSHHEKDTRCLGATAQQFHRHKQLIRFLKRLDRNLWGLAGLNSCPVKEANQSTLENFLERLKTIMREKYSKCSS

Test system: monocyte to fibrocyte differentiation (PBMC)
Assay: Fibrocyte differentiation assay: PBMC cultured in serum-free medium, fibrocytes enumerated by morphology
Assay type: cell-based, human
Conditions: for number of fibrocytes in culture: concentrations between 10 and 0.1 ng/ml; for number of fibrocytes in culture / ability to inhibit fibrocyte differentiation: PBMC in serum-free medium; for ability to inhibit fibrocyte differentiation: commercially available purified proteins, 6 days
Experimental: The rapid appearance of these cells, within 3 days of culture, was inhibited by human serum or plasma. To examine this process in more detail, PBMC were cultured at 5×10^5 cells per ml in serum-free medium containing increasing concentrations of human plasma for 6 days. […] The activity in the serum that inhibited fibrocyte formation was retained by a 30 kDa cutoff spin-filter (data not shown).
Plasma was fractionated by BaCl2 precipitation, heparin and ion exchange chromatography. Protein concentrations were assessed by spectrophotometry at 280 nm. Inhibition of fibrocyte differentiation was assessed by morphology. The fibrocyte inhibitory activity of a sample was defined as the reciprocal of the dilution at which it inhibited fibrocyte differentiation by 50%, when added to serum-free medium.
Serum amyloid P is a constitutive plasma protein and is closely related to CRP, the major acute phase protein in humans. […] Serum and plasma contain between 30-50 μg/ml SAP.
Cells were incubated in serum-free medium: RPMI (GibcoBRL Life, Invitrogen, Carlsbad, Calif., USA) supplemented with 10 mM HEPES (GibcoBRL/Life), 2 mM glutamine, 100 U/ml penicillin and 100 μg/ml streptomycin, 0.2% bovine serum albumin (BSA, Sigma), 5 μg/ml insulin (Sigma), 5 μg/ml iron-saturated transferrin (Sigma) and 5 ng/ml sodium selenite (Sigma). Normal human serum (Sigma), normal human plasma (Gulf Coast Regional Blood Center) or fetal calf serum (Sigma), column fractions, sera and synovial fluid from patients or purified proteins were added at the stated concentrations. Patient samples were obtained from a repository available to researchers at University of Texas Medical School at Houston. This repository keeps patient information confidential, and meets all NIH guidelines.
PBMC were cultured in 24 or 96 well tissue culture plates in 2 ml or 200 μl volumes respectively (Becton Dickinson, Franklin Lakes, N.J.) at 2.5×10^5 cells per ml in a humidified incubator containing 5% CO2 at 37° C. for the indicated times. Fibrocytes in 5 different 900 μm diameter fields of view were enumerated by morphology in viable cultures as adherent cells with an elongated spindle-shaped morphology as distinct from small lymphocytes or adherent monocytes. Alternatively cells were air dried, fixed in methanol and stained with haematoxylin and eosin (Hema 3 Stain, VWR, Houston, Tex.). Fibrocytes were counted using the above criterion and the presence of an oval nucleus. Enumeration of fibrocytes was performed on cells cultured for 6 days in flat-bottomed 96 well plates, with 2.5×10^4 cells per well. In addition, fibrocyte identity was confirmed by immunoperoxidase staining (see below). The fibrocyte inhibitory activity of a sample was defined as the reciprocal of the dilution at which it inhibited fibrocyte differentiation by 50%, when added to serum-free medium.
Experiments have shown that IL-4 and IL-13 are capable of promoting fibrocyte differentiation in vitro. Specifically, PBMC were cultured in serum-free medium in the presence of IL-4 or IL-13. […] Therefore a bandage or other topical agarose formulation as described above additionally containing IL-4 and/or IL-13 is expected to show further improvements in wound healing.

Molecule | number of fibrocytes in culture | ability to inhibit fibrocyte differentiation | further results
IL-13: cytokine, activator of the fibrotic response | enhanced the number of fibrocytes |  | 
SAP: commercially available purified human serum amyloid P (Calbiochem), a pentraxin plasma protein |  | able to inhibit fibrocyte differentiation | activity from dilution curve (commercially available SAP): approximately 6.6×10^3 units/mg; concentration of maximal inhibitory activity (commercially available purified SAP): 1 µg/mL; SAP concentration at the plasma dilution at which fibrocytes began to appear, comparable to the threshold concentration of purified SAP (worked out from 0.5% plasma and 30-50 μg/ml SAP): 0.15 to 0.25 µg/mL
B1 |  | only SAP was able to inhibit fibrocyte differentiation | 
B2 |  | only SAP was able to inhibit fibrocyte differentiation | 
B3 | enhanced the number of fibrocytes |  | 
